Laboratory results from patent US20240409576A1, “-ent-19-norprogesterone, compositions and uses thereof to treat traumatic brain injury (TBI), including concussions-” (Oragenics, Inc., priority 2015, published 2024).
Values after ≈ are worked out from the molar mass of the structure shown. “Also recorded” adds a separate entry of the source. Where two headings read alike, the source gives them in different places.

Columns and labels:
nasal mucosa of a rat = experiment: Intranasal penetration of Evans Blue labeled PRV002, atomizer vs pipette; type: in vivo; conditions: PRV002 labeled with Evans Blue dye, post-mortem evaluation
Experimental: The goal of this study is to evaluate the motor and cognitive function of rats treated via intranasal administration with PRV-002, an analogue of the enantiomer of progesterone, following traumatic brain injury. Prior to the initiation of the treatment study, an anatomical evaluation is performed using PRV002 labeled with Evans Blue dye to determine the optimal intranasal/intracerebral penetration of compound using intranasal administration via a miniature atomizer vs. a manual pipette.

[1] = system: rat model of traumatic brain injury (mid-line cortical impact); type: in vivo, Sprague-Dawley rats
[2] = system: rat model of traumatic brain injury (mid-line cortical impact); type: in vivo, Sprague-Dawley rats; conditions: for Motor function (neuroscore) compared to vehicle-treated rats: 48 h post-injury, 6 h, 24 h
[3] = system: rat model of traumatic brain injury (mid-line cortical impact); type: in vivo, Sprague-Dawley rats; remark: listed apart in the source
[4] = system: rat model of traumatic brain injury (mid-line cortical impact); type: in vivo, Sprague-Dawley rats; conditions: 48 h post-injury; for Time spent in thigmotaxia compared to vehicle-treated rats: trial not stated
[5] = system: rat model of traumatic brain injury (mid-line cortical impact); type: in vivo, Sprague-Dawley rats; conditions: 48 h post-injury
physchem = conditions: aqueous with cosolvent or surfactant or cyclodextrin, thermodynamic from solid
[6] = system: rat model of traumatic brain injury (mid-line cortical impact); type: in vivo, Sprague-Dawley rats; conditions: 48 h post-injury; remark: listed apart in the source
[7] = under certain conditions; cited from earlier work
[8] = system: moderate-to-severe adult TBI; conditions: progesterone IV for 3 days after injury, cited from earlier work
[9] = 48 h post-injury, intranasal 0.05 mg/kg
[10] = trial 1, intraperitoneal 4 mg/kg
[11] = trial 1, intraperitoneal 16 mg/kg
[12] = trial 2, intraperitoneal 4 mg/kg
[13] = trial 2, intraperitoneal 16 mg/kg
[14] = trial not given, intraperitoneal 4 mg/kg
[15] = trial not given, intraperitoneal 16 mg/kg

CC(=O)[C@@H]1CC[C@@H]2[C@H]3CCC4=CC(=O)CC[C@H]4[C@@H]3CC[C@]21C (single isomer, unassigned; ent-19) [PRV-002, ent-19-norpregn-4-ene-3,20-dione]
Resultant solution (30 mg in 1 ml Solution 1, mix time 60 min): Hazy | Resultant solution (+0.1 ml Solution 1, ~1.1 ml, mix time 120 min): Hazy | Resultant solution (+0.1 ml Solution 1, ~1.2 ml, mix O/N): Hazy to Clear | Nasal mucosal penetration, miniature atomizer vs manual pipette (nasal mucosa of a rat): clear advantage of the miniature atomizer over the pipette technique | Motor function (neuroscore) compared to vehicle-treated rats ([1]; 24 h post-injury, intranasal 0.1 mg/kg): significantly improved motor function | Motor function (neuroscore) compared to vehicle-treated rats ([1]; 24 h post-injury, intranasal 0.1 mg/kg, listed as PRV002): significantly improved | Motor function (neuroscore) compared to vehicle-treated rats ([1]; 24 h post-injury, intranasal 4 mg/kg): significantly improved motor function | Motor function (neuroscore) compared to vehicle-treated rats ([1]; 24 h post-injury, intranasal 4 mg/kg, listed as PRV002): significantly improved | Motor function (neuroscore) compared to vehicle-treated rats [1, 9]: significantly better motor function | Motor performance (neuroscore) compared to sham rats [1, 9]: significantly worse performance | Motor function (neuroscore) compared to vehicle-treated rats ([1]; 48 h post-injury, intranasal 0.05 mg/kg, listed as PRV002): significantly improved motor function | Motor function (neuroscore) compared to vehicle-treated rats ([1]; 48 h post-injury, intranasal 0.1 mg/kg): significantly better motor function | Motor function (neuroscore) compared to vehicle-treated rats ([1]; 48 h post-injury, intranasal 0.1 mg/kg, listed as PRV002): significantly improved motor function | Motor performance (neuroscore) compared to sham rats ([1]; 48 h post-injury, intranasal 1 mg/kg): significantly worse performance | Motor function (neuroscore) compared to vehicle-treated rats ([1]; 48 h post-injury, intranasal 4 mg/kg): significantly better motor function | Motor function (neuroscore) compared to vehicle-treated rats ([1]; 48 h post-injury, intranasal 4 mg/kg, listed as PR V-002): significantly better motor function | Motor function (neuroscore) compared to vehicle-treated rats ([1]; 48 h post-injury, intranasal 4 mg/kg, listed as PRV002): significantly improved motor function | Motor performance scores (neuroscore) compared to sham rats ([1]; rat, in vivo): not significantly different from sham rats | Group differences in neuroscore ([2]; 24 h post-injury, intraperitoneal 4 mg/kg or 16 mg/kg, sham, vehicle and treated groups): failed to reveal significant differences; also recorded: no significant group differences | Motor function (neuroscore) compared to vehicle-treated rats ([2]; intraperitoneal 4 mg/kg at 15 min): significant improvement; also recorded: significantly better motor performance; also recorded: significant attenuation of TBI-induced motor function deficits; also recorded: significantly better motor function | Motor function (neuroscore) compared to vehicle-treated rats ([2]; intraperitoneal 16 mg/kg at 15 min): significant improvement; also recorded: significantly better motor performance; also recorded: significant attenuation of TBI-induced motor function deficits; also recorded: significantly better motor function | Cognitive function (post-traumatic memory) ([3]; 48 h post-injury/treatment, intranasal 4 mg/kg, trial not stated): significant improvement in cognitive function | Morris water maze memory score (cognitive performance) compared to all other groups ([3]; rat, in vivo): all groups have significantly lower memory scores than PRV-002 4 mg/kg-treated rats | Morris water maze memory score (cognitive performance) compared to all other groups ([3]; trial 1, 48 h post-injury, intranasal 4 mg/kg): significantly better cognitive performance | Group differences in cognitive performance (Morris water maze memory score) ([3]; trial 2, 48 h post-injury, intranasal 0.05, 0.1, 1, 4 mg/kg groups): significant group differences in cognitive performance are not observed | Group differences in time spent in thigmotaxia ([4]; trial 1, intranasal 0.05, 0.1, 1, 4 mg/kg groups): no significant group differences are observed in time spent in thigmotaxia | Time spent in thigmotaxia compared to vehicle-treated injured rats ([4]; trial 2, intranasal 4 mg/kg): significantly less time in thigmotaxia | Time spent in thigmotaxia compared to sham rats ([4]; trial 2, intranasal 005 mg/kg): significantly more time in thigmotaxia | Time spent in thigmotaxia compared to vehicle-treated rats ([4]; intranasal 4 mg/kg): spent significantly less time in thigmotaxia | Time spent in thigmotaxia compared to vehicle-treated rats ([4]; intranasal 4 mg/kg, listed as PRV002): significantly reduced | Morris water maze memory score (cognitive deficits) vs vehicle-treated injured rats [5, 10]: significantly attenuated TBI-related cognitive deficits | Morris water maze memory score (cognitive deficits) vs vehicle-treated injured rats [5, 11]: significantly attenuated TBI-related cognitive deficits | Morris water maze memory score (cognitive deficits) vs vehicle-treated injured rats [5, 12]: significantly attenuated TBI-related cognitive deficits | Morris water maze memory score (cognitive deficits) vs vehicle-treated injured rats [5, 13]: significantly attenuated TBI-related cognitive deficits | Morris water maze memory score (cognitive deficits) vs vehicle-treated injured rats [5, 14]: ameliorated; also recorded: vehicle-treated injured rats have significantly worse cognitive function; also recorded: amelioration of TBI-induced cognitive deficits | Morris water maze memory score (cognitive deficits) vs vehicle-treated injured rats [5, 15]: ameliorated; also recorded: vehicle-treated injured rats have significantly worse cognitive function; also recorded: amelioration of TBI-induced cognitive deficits | solubility (physchem): ~23 mg/mL (≈ 76.6 mM) | Time spent in thigmotaxia vs vehicle-treated injured rats [6, 10]: vehicle-treated rats spend significantly more time in thigmotaxia | Time spent in thigmotaxia vs vehicle-treated injured rats [6, 11]: vehicle-treated rats spend significantly more time in thigmotaxia | Time spent in thigmotaxia vs vehicle-treated injured rats [6, 12]: vehicle-treated rats spend significantly more time in thigmotaxia | Time spent in thigmotaxia vs vehicle-treated injured rats [6, 13]: vehicle-treated rats spend significantly more time in thigmotaxia | Time spent in thigmotaxia vs vehicle-treated injured rats [6, 14]: ameliorated; also recorded: vehicle-treated injured rats spend significantly more time in thigmotaxia; also recorded: spend less time in the thigmotaxia area | Time spent in thigmotaxia vs vehicle-treated injured rats [6, 15]: ameliorated; also recorded: vehicle-treated injured rats spend significantly more time in thigmotaxia; also recorded: spend less time in the thigmotaxia area

CC(=O)[C@@H]1CC[C@@H]2[C@H]3CCC4=CC(=O)CC[C@@]4(C)[C@@H]3CC[C@]21C [ent-Progesterone, ent-progesterone]
Antioxidant activity relative to racemate [7]: three times the antioxidant activity of racemate

CC(=O)[C@H]1CC[C@H]2[C@@H]3CCC4=CC(=O)CC[C@]4(C)[C@H]3CC[C@]12C [progesterone]
Mortality rate ([8]; control 30.4%): 13.6% | Serious adverse events ([8]; data safety monitoring board): no serious adverse events attributable to progesterone treatment
